# Test results as given in patent US5955055A, “Synthetic peptides for arterial imaging at vascular imaging sites” (New England Deaconess Hospital Corporation, priority 1995, dated 1999).
# Ends that are not written are not given here.
# System: anti-SP-4 antiserum
# Experiment: ELISA for immunological cross-reactivity with anti-SP-4 antiserum
# Type: binding, rabbit
# Conditions: ELISA plates coated with LDL or peptide, 100 ng per well
# Protocol: To determine whether the molecular conformation or structure of the synthetic apoB peptides was analogous to the conformation of the apoB moiety of LDL, a polyclonal antiserum was raised to each peptide and its ability to bind LDL tested. Antiserum raised to human LDL was used as the control. To produce anti-synthetic peptide antisera, purified synthetic peptide was dissolved in PBS, pH 7.4 at a concentration of 1 mg/ml. The peptide solution was mixed with an equal volume of complete Freund's adjuvant and vortexed thoroughly until a thick emulsion was produced. New Zealand White rabbits (Millbrook Farms, Amherst, Mass.) were injected with a total of 0.5 mg synthetic peptide administered subcutaneously in the four dorsal quadrants. The rabbits were given a boost (injected at the same sites) with 0.5 mg peptide emulsified in incomplete Freund's adjuvant 2-3 weeks later. Eight to ten days after the first boost, the animals were given a second, identical boost and were bled of 30 ml 8 to 10 days later. To test for immunological cross-reactivity microtiter plates (Immulon II Dynatech Labs, Chantilly, Va.) were coated with the purified synthetic peptide or LDL by an overnight incubation at 4° C. with 100 ng peptide per well in 50 mM carbonate, pH 9.6, and blocked for nonspecific binding with an additional overnight incubation with phosphate-buffered saline, pH 7.4 (PBS), 1% bovine serum albumin (BSA). Control wells were coated with BSA alone. After washing twice with PBS, the wells were filled with serial dilutions (1:10 to 1:100,000 made in PBS, 3% BSA) of a rabbit polyclonal antibody generated against the synthetic peptide(s) and incubated for 45 minutes at room temperature. Following thorough washing (3× with PBS, 0.1% BSA), the wells were filled with a 1:2000 dilution of goat anti-rabbit IgG-horseradish peroxidase conjugate (Atlantic Antibodies, Scarborough, Me.). After a final wash, the wells were filled with 3,3'-5,5'-tetramethybenzidine (TMB) microwell peroxidase substrate (Kirkegaard and Perry Labs, Gaithersburg, Md.) and read at 650 nm every two minutes on an ELISA-5 automated plate reader (Physica, New York, N.Y.). Results (see, e.g., FIGS. 4 and 5) are expressed as the initial velocity of substrate conversion (change in OD650 /hr), which is determined by a linear regression of 15 data points per well. Each data point represents the average of three measured data points from the same plate, run at the same time.
row,Substance,Binding of anti-SP-4 antiserum to coated antigen
1,"Ac-YKLALEAARLLADAEGAK-NH2 [SP-6A, CH3 CONH-Tyr-Lys-Leu-Ala-Leu-Glu-Ala-Ala-Arg-Leu-Leu-Ala-Asp-Ala-Glu-Gly-Ala-Lys-CONH2]",shown to bind
2,"Ac-YKLALEAARLLANAEGAK-NH2 [SP-8A, CH3 CONH-Tyr-Lys-Leu-Ala-Leu-Glu-Ala-Ala-Arg-Leu-Leu-Ala-Asn-Ala-Glu-Gly-Ala-Lys-CONH2]",shown to bind
3,"Ac-YRALVDTLK-NH2 [SP-14A, CH3 CONH-Tyr-Arg-Ala-Leu-Val-Asp-Thr-Leu-Lys-CONH2]",shown to bind
4,"Ac-YRALVDTLKFVTQAEGAK-NH2 [SP-4A, CH3 CONH-Tyr-Arg-Ala-Leu-Val-Asp-Thr-Leu-Lys-Phe-Val-Thr-Gln-Ala-Glu-Gly-Ala-Lys-CONH2]",shown to bind
5,"Ac-YRALVDYLKFVTQL-NH2 [SP-12A, CH3 CONH-Tyr-Arg-Ala-Leu-Val-Asp-Tyr-Leu-Lys-Phe-Val-Thr-Gln-Leu-CONH2]",shown to bind
6,"YKLALEAARLLADAEGAK-NH2 [SP-6, H2 N-Tyr-Lys-Leu-Ala-Leu-Glu-Ala-Ala-Arg-Leu-Leu-Ala-Asp-Ala-Glu-Gly-Ala-Lys- CONH2]",shown to bind
7,"YKLALEAARLLANAEGAK-NH2 [SP-8, H2 N-Tyr-Lys-Leu-Ala-Leu-Glu-Ala-Ala-Arq-Leu-Leu-Ala-Asn-Ala-Glu-Gly-Ala-Lys- CONH2]",shown to bind
8,"YRALVDTLKFVTQAEGAK-NH2 [SP-4, NH2 -Tyr-Arg-Ala-Leu-Val-Asp-Thr-Leu-LYs-Phe-Val-Thr-Gln-Ala-Glu-Gly-Ala-Lys-CONH2]",shown to bind

# System: not listed separately
# Experiment: Plasma decay of 125I-labelled synthetic peptide after injection into the marginal ear vein
# Type: in vivo, rabbit
# Conditions: at four hours
# Protocol: Each labelled synthetic peptide preparation (containing, for example, 150 to 400 or more μCi of ^125 I-labelled peptide) in column elution buffer was injected into the marginal ear vein of the ballooned and healing New Zealand white rabbits or WHHL rabbits. Serial blood samples were obtained from the opposite ear during the ensuing 0-24 hours and were analyzed for radioactivity. The labelled peptide concentrations in the blood samples that were withdrawn over the first 10 minutes after injection were extrapolated to zero time to determine the time zero radioactivity in the calculation of average plasma radioactivity. […] Peptides SP15a, SP17, SP19a, SP21a, SP28, SP34a, and SP30 were cleared rapidly from the plasma with half-lives of about one minute or less; after one hour, the plasma levels were less than 10% of the injected dose and fell by an additional 1% over the next three hours. Peptides SP15a, SP17, SP21a, SP28, SP34a, and SP30 leveled off to a plasma level of 3-6%; peptide SP19a cleared more quickly and leveled off to a concentration of 0.3% (at four hours).
# Control peptides used were SP-2 (part of the heparin and LDL receptor binding site of apolipoprotein E) and SP-11A which is a receptor and heparin binding domain of apolipoprotein B. To compare the relative accumulation of the ^125 I-labelled synthetic peptides in the aorta and adrenal gland, it was necessary to correct for differences in mean plasma concentration of the labelled compounds. The mean concentration of synthetic peptide-associated ^125 I radioactivity was calculated by numerical integration of the plasma decay curves and division by the time since injection of the isotope.
row,Substance,Plasma level at which the peptide leveled off
1,"Ac-YAKFRETLEDTRDRMY-NH2 [SP-15a, CH3 CONH-Tyr-Ala-Lys-Phe-Arg-Glu-Thr-Leu-Glu-Asp-Thr-Arg-Asp-Arg-Met-Tyr-CONH2]",3-6%
2,"Ac-YRALVDTEFKVKQEAGAK-NH2 [SP-21a, CH3 CONH-Tyr-Arg-Ala-Leu-Val-Asp-Thr-Glu-Phe-Lys-Val-Lys-Gln-Glu-Ala-Gly-Ala-Lys-CONH2]",3-6%
3,"Ac-YRALVDTLKFVTEQAKGA-NH2 [SP-19a, CH3 CONH-Tyr-Arg-Ala-Leu-Val-Asp-Thr-Leu-Lys-Phe-Val-Thr-Glu-Gln-Ala-Lys-Gly-Ala-CONH2]",0.3%
4,Ac-YVLDEFREKLNEELEALKQK-NH2 [SP-34a],3-6%
5,"YAALDLNAVANKIADFEL-NH2 [SP-17, H2 N-Tyr-Ala-Ala-Leu-Asp-Leu-Asn-Ala-Val-Ala-Asn-Lys-Ile-Ala-Asp-Phe-Glu-Leu- CONH2]",3-6%
6,"YVGVAPGVGVAPGVGVAPG [SP-28, H2 N-Tyr-Val-Gly-Val-Ala-Pro-Gly-val-Gly-Val-Ala-Pro-Gly-Val-Gly-Val-Ala-Pro- Gly-OH]",3-6%
7,"YVPGVGVPGVGVPGVGVPGVG-NH2 [SP-30, H2 N-Tyr-Val-Pro-Gly-Val-Gly-Val-Pro-Gly-Val-Gly-Val-Pro-Gly-Val-Gly-Val-Pro- Gly-Val-Gly-CONH2]",3-6%
